{"source": "ChEMBL document CHEMBL4480383", "about": "“Synthesis of saccharocin from apramycin and evaluation of its ribosomal selectivity” (Medchemcomm, 2019)", "key": {"[1]": {"test_system": "Staphylococcus aureus", "assay": "Antibacterial activity against Methicillin-resistant Staphylococcus aureus AG038", "assay_type": "functional"}, "[2]": {"assay": "Selectivity ratio of IC50 for antiribosomal activity against humanized bacterial ribosome incorporating complete decoding A site from human mitochondrial ribosome Mit13 to IC50 for antiribosomal activity against wild type bacterial ribosomes"}, "[3]": {"test_system": "Klebsiella pneumoniae", "assay": "Antibacterial activity against Klebsiella pneumoniae AG215", "assay_type": "functional"}, "[4]": {"assay": "Selectivity ratio of IC50 for antiribosomal activity against humanized bacterial ribosome incorporating human cytoplasmic ribosome Cyt14 to IC50 for antiribosomal activity against wild type bacterial ribosomes"}, "[5]": {"test_system": "Acinetobacter baumannii", "assay": "Antibacterial activity against Acinetobacter baumannii AG309", "assay_type": "functional"}, "[6]": {"assay": "Antiribosomal activity against humanized bacterial ribosome incorporating complete decoding A site from human mitochondrial ribosome Mit13 assessed as inhibition of luciferase production by cell-free translation assay"}, "[7]": {"test_system": "Escherichia coli", "assay": "Antibacterial activity against Escherichia coli AG001", "assay_type": "functional"}, "[8]": {"assay": "Selectivity ratio of IC50 for antiribosomal activity against humanized bacterial ribosome incorporating A1555G mutant of human mitochondrial ribosome to IC50 for antiribosomal activity against wild type bacterial ribosomes"}, "[9]": {"target": "Bacterial 70S ribosome", "assay": "Antiribosomal activity against wild type bacterial ribosomes assessed as inhibition of luciferase production by cell-free translation assay", "assay_type": "subcellular, Bacteria"}, "[10]": {"test_system": "Enterobacter cloacae", "assay": "Antibacterial activity against Enterobacter cloacae AG290", "assay_type": "functional"}, "[11]": {"assay": "Antiribosomal activity against humanized bacterial ribosome incorporating A1555G mutant of human mitochondrial ribosome assessed as inhibition of luciferase production by cell-free translation assay"}, "[12]": {"assay": "Antiribosomal activity against humanized bacterial ribosome incorporating human cytoplasmic ribosome Cyt14 assessed as inhibition of luciferase production by cell-free translation assay"}, "[13]": {"test_system": "Pseudomonas aeruginosa", "assay": "Antibacterial activity against Pseudomonas aeruginosa AG220", "assay_type": "functional"}}}
{"compound": "CN[C@@H]1[C@@H](O[C@H]2O[C@H](CO)[C@@H](O)[C@H](O)[C@H]2O)O[C@H]2C[C@@H](N)[C@@H](O[C@H]3[C@H](O)[C@@H](O)[C@H](N)C[C@@H]3N)O[C@@H]2[C@@H]1O", "values": [{"measurement": "Activity", "setting": "[1]", "result": 32, "unit": "µg/mL"}, {"measurement": "Ratio IC50", "setting": "[2]", "result": "> 3120"}, {"measurement": "Activity", "setting": "[3]", "result": 4, "unit": "µg/mL"}, {"measurement": "Ratio IC50", "setting": "[4]", "result": 2730}, {"measurement": "Activity", "setting": "[5]", "result": 8, "unit": "µg/mL"}, {"measurement": "IC50", "setting": "[6]", "result": "> 500", "unit": "µg/mL"}, {"measurement": "Activity", "setting": "[7]", "result": "8 to 16", "unit": "µg/mL"}, {"measurement": "Ratio IC50", "setting": "[8]", "result": 1920}, {"measurement": "IC50", "setting": "[9]", "result": 296, "unit": "nM"}, {"measurement": "Activity", "setting": "[10]", "result": "4 to 8", "unit": "µg/mL"}, {"measurement": "IC50", "setting": "[11]", "result": 307, "unit": "µg/mL"}, {"measurement": "IC50", "setting": "[12]", "result": 437, "unit": "µg/mL"}, {"measurement": "Activity", "setting": "[13]", "result": "8 to 16", "unit": "µg/mL"}]}
{"compound": "CN[C@@H]1[C@@H](O[C@H]2O[C@H](CO)[C@@H](N)[C@H](O)[C@H]2O)O[C@H]2C[C@@H](N)[C@@H](O[C@H]3[C@H](O)[C@@H](O)[C@H](N)C[C@@H]3N)O[C@@H]2[C@@H]1O", "values": [{"measurement": "Activity", "setting": "[1]", "result": 4, "unit": "µg/mL"}, {"measurement": "Ratio IC50", "setting": "[2]", "result": 859}, {"measurement": "Activity", "setting": "[3]", "result": "1 to 2", "unit": "µg/mL"}, {"measurement": "Ratio IC50", "setting": "[4]", "result": 885}, {"measurement": "Activity", "setting": "[5]", "result": 4, "unit": "µg/mL"}, {"measurement": "IC50", "setting": "[6]", "result": 67, "unit": "µg/mL"}, {"measurement": "Activity", "setting": "[7]", "result": 4, "unit": "µg/mL"}, {"measurement": "Ratio IC50", "setting": "[8]", "result": 513}, {"measurement": "IC50", "setting": "[9]", "result": 145, "unit": "nM"}, {"measurement": "Activity", "setting": "[10]", "result": "2 to 4", "unit": "µg/mL"}, {"measurement": "IC50", "setting": "[11]", "result": 40, "unit": "µg/mL"}, {"measurement": "IC50", "setting": "[12]", "result": 69, "unit": "µg/mL"}, {"measurement": "Activity", "setting": "[13]", "result": 4, "unit": "µg/mL"}]}
